Our source for the T/C values is PubChem BioAssay AID248 (DTP/NCI, 2004).

In the test the test system is L1210 leukemia ip in BDF1 mice, survival T/C. Briefly: NCI In Vivo Anticancer Drug Screen. Data for tumor model L1210 Leukemia (intraperitoneal) in B6D2F1 (BDF1) mice. As to conditions: higher = longer survival. In short, it runs like this: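 Each compound was tested against a transplantable tumor grown in mice. The endpoint was survival, with treated animals benchmarked against vehicle controls as a simple ratio.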

The mark [1] stands for this setting: endpoint: mean survival time, dose: 100.0 mg/kg/injection, schedule: Q01DX009 (ip), vehicle: Klucel (hydroxypropylcellulose) (HPC).
Where [2] appears, read: endpoint: mean survival time, dose: 200.0 mg/kg/injection, schedule: Q01DX009 (ip), vehicle: Klucel (hydroxypropylcellulose) (HPC).
The mark [3] stands for this setting: endpoint: mean survival time, dose: 400.0 mg/kg/injection, schedule: Q01DX009 (ip), vehicle: Klucel (hydroxypropylcellulose) (HPC).

Where “and” joins values, the source holds several entries; their conditions need not be identical. Equal entries are not always repeated. Inconclusive results and toxic doses are left out. Peptide text beside a SMILES is read from it. * marks the point of attachment. ONp = O=[N+]([O-])c1ccc(O*)cc1; Tos = Cc1ccc(S(=O)(=O)*)cc1

For the compound `Oc1cc(CN(CCCl)CCCl)c(O)cc1CN(CCCl)CCCl`, the T/C was 118 % of control (endpoint: mean survival time, dose: 0.06 mg/kg/injection, schedule: Q#A X Z (ip), vehicle: saline); 120 % of control (endpoint: mean survival time, dose: 0.13 mg/kg/injection, schedule: Q01DX Z (ip), vehicle: saline); 111 % of control (endpoint: mean survival time, dose: 0.25 mg/kg/injection, schedule: Q01DX001 (ip), vehicle: saline); 122 % of control (endpoint: mean survival time, dose: 0.25 mg/kg/injection, schedule: Q01DX Z (ip), vehicle: saline); 158 % of control (endpoint: mean survival time, dose: 0.25 mg/kg/injection, schedule: Q07DX003 (ip), vehicle: saline); 104 % of control (endpoint: mean survival time, dose: 0.5 mg/kg/injection, schedule: Q01DX001 (ip), vehicle: saline). Further, the T/C (endpoint: mean survival time, dose: 0.5 mg/kg/injection, schedule: Q01DX010 (ip), vehicle: saline) is 121 % of control; the T/C (endpoint: mean survival time, dose: 0.5 mg/kg/injection, schedule: Q07DX003 (ip), vehicle: saline) is 104 % of control; the T/C (endpoint: mean survival time, dose: 0.5 mg/kg/injection, schedule: Q#A X Z (ip), vehicle: saline) is 122 % of control; the T/C (endpoint: mean survival time, dose: 1.0 mg/kg/injection, schedule: Q01DX001 (ip), vehicle: saline) was 107 % of control and 113 % of control; the T/C (endpoint: mean survival time, dose: 1.25 mg/kg/injection, schedule: Q01DX009 (ip), vehicle: saline) was 107 % of control and 118 % of control; the T/C (endpoint: mean survival time, dose: 2.0 mg/kg/injection, schedule: Q01DX001 (ip), vehicle: saline) was 111 % of control and 120 % of control. Moreover, the T/C by setting is: (endpoint: mean survival time, dose: 2.0 mg/kg/injection, schedule: Q01DX006 (iv), vehicle: saline) 114 % of control; (endpoint: mean survival time, dose: 2.0 mg/kg/injection, schedule: Q01DX Z (im), vehicle: saline) 108 % of control; (endpoint: mean survival time, dose: 2.0 mg/kg/injection, schedule: Q01DX Z (sc), vehicle: saline) 108 % of control; (endpoint: mean survival time, dose: 2.5 mg/kg/injection, schedule: Q01DX009 (ip), vehicle: saline) 119 % of control; (endpoint: mean survival time, dose: 3.0 mg/kg/injection, schedule: Q03DX006 (ip), vehicle: saline) 106 % of control; (endpoint: mean survival time, dose: 4.0 mg/kg/injection, schedule: Q01DX001 (ip), vehicle: saline) 108 % of control. Moreover, the T/C (endpoint: mean survival time, dose: 4.0 mg/kg/injection, schedule: Q01DX006 (iv), vehicle: saline) is 117 % of control; the T/C (endpoint: mean survival time, dose: 4.0 mg/kg/injection, schedule: Q01DX010 (ip), vehicle: saline) was 119 % of control; the T/C (endpoint: mean survival time, dose: 4.0 mg/kg/injection, schedule: Q01DX Z (im), vehicle: saline) was 120 % of control; the T/C (endpoint: mean survival time, dose: 4.0 mg/kg/injection, schedule: Q01DX Z (sc), vehicle: saline) is 114 % of control; the T/C (endpoint: mean survival time, dose: 5.0 mg/kg/injection, schedule: Q01DX009 (ip), vehicle: saline) was 122 % of control; the T/C (endpoint: mean survival time, dose: 5.0 mg/kg/injection, schedule: Q01DX010 (ip), vehicle: saline) is 117 % of control. In addition, the T/C runs as follows: (endpoint: mean survival time, dose: 8.0 mg/kg/injection, schedule: Q01DX001 (ip), vehicle: saline) 104 % of control and 113 % of control; (endpoint: mean survival time, dose: 8.0 mg/kg/injection, schedule: Q01DX006 (iv), vehicle: saline) 123 % of control; (endpoint: mean survival time, dose: 8.0 mg/kg/injection, schedule: Q01DX Z (im), vehicle: saline) 108 % of control; (endpoint: mean survival time, dose: 8.0 mg/kg/injection, schedule: Q01DX Z (oral), vehicle: saline) 117 % of control; (endpoint: mean survival time, dose: 8.0 mg/kg/injection, schedule: Q01DX Z (sc), vehicle: saline) 111 % of control; (endpoint: mean survival time, dose: 8.0 mg/kg/injection, schedule: Q#A X Z (ip), vehicle: saline) 102 % of control. In addition, the T/C (endpoint: mean survival time, dose: 10.0 mg/kg/injection, schedule: Q01DX009 (ip), vehicle: saline) was 93 % of control and 96 % of control; the T/C (endpoint: mean survival time, dose: 10.0 mg/kg/injection, schedule: Q01DX010 (ip), vehicle: saline) is 89 % of control; the T/C (endpoint: mean survival time, dose: 16.0 mg/kg/injection, schedule: Q01DX001 (ip), vehicle: saline) was 122 % of control and 124 % of control; the T/C (endpoint: mean survival time, dose: 16.0 mg/kg/injection, schedule: Q01DX006 (iv), vehicle: saline) is 123 % of control; the T/C (endpoint: mean survival time, dose: 16.0 mg/kg/injection, schedule: Q01DX Z (im), vehicle: saline) is 117 % of control; the T/C (endpoint: mean survival time, dose: 16.0 mg/kg/injection, schedule: Q01DX Z (ip), vehicle: saline) was 103 % of control. Further, the T/C was 109 % of control (endpoint: mean survival time, dose: 16.0 mg/kg/injection, schedule: Q01DX Z (oral), vehicle: saline); 120 % of control (endpoint: mean survival time, dose: 16.0 mg/kg/injection, schedule: Q01DX Z (sc), vehicle: saline); 114 % of control (endpoint: mean survival time, dose: 16.0 mg/kg/injection, schedule: Q07DX003 (ip), vehicle: saline); 124 % of control (endpoint: mean survival time, dose: 24.0 mg/kg/injection, schedule: Q03DX006 (ip), vehicle: saline); 120 % of control (endpoint: mean survival time, dose: 32.0 mg/kg/injection, schedule: Q01DX001 (ip), vehicle: saline); 93 % of control (endpoint: mean survival time, dose: 32.0 mg/kg/injection, schedule: Q01DX Z (im), vehicle: saline). The T/C runs as follows: (endpoint: mean survival time, dose: 32.0 mg/kg/injection, schedule: Q01DX Z (oral), vehicle: saline) 111 % of control; (endpoint: mean survival time, dose: 32.0 mg/kg/injection, schedule: Q01DX Z (sc), vehicle: saline) 110 % of control; (endpoint: mean survival time, dose: 48.0 mg/kg/injection, schedule: Q03DX006 (ip), vehicle: saline) 104 % of control; (endpoint: mean survival time, dose: 64.0 mg/kg/injection, schedule: Q01DX001 (ip), vehicle: saline) 108 % of control and 110 % of control; (endpoint: mean survival time, dose: 64.0 mg/kg/injection, schedule: Q01DX Z (im), vehicle: saline) 95 % of control; (endpoint: mean survival time, dose: 64.0 mg/kg/injection, schedule: Q01DX Z (oral), vehicle: saline) 105 % of control. In addition, the T/C is, setting by setting: (endpoint: mean survival time, dose: 64.0 mg/kg/injection, schedule: Q01DX Z (sc), vehicle: saline) 87 % of control; (endpoint: mean survival time, dose: 64.0 mg/kg/injection, schedule: Q07DX003 (ip), vehicle: saline) 106 % of control; (endpoint: mean survival time, dose: 128.0 mg/kg/injection, schedule: Q01DX001 (ip), vehicle: saline) 108 % of control and 114 % of control; (endpoint: mean survival time, dose: 256.0 mg/kg/injection, schedule: Q01DX001 (ip), vehicle: saline) 119 % of control; (endpoint: mean survival time, dose: 16.0 micrograms/kg/injection, schedule: Q03DX003 (ip), vehicle: saline) 104 % of control; (endpoint: mean survival time, dose: 32.0 micrograms/kg/injection, schedule: Q03DX003 (ip), vehicle: saline) 98 % of control. The T/C is 102 % of control (endpoint: mean survival time, dose: 37.5 micrograms/kg/injection, schedule: Q07DX002 (ip), vehicle: saline); 107 % of control (endpoint: mean survival time, dose: 62.5 micrograms/kg/injection, schedule: Q03DX003 (ip), vehicle: saline); 101 % of control (endpoint: mean survival time, dose: 75.0 micrograms/kg/injection, schedule: Q07DX002 (ip), vehicle: saline); 102 % of control (endpoint: mean survival time, dose: 125.0 micrograms/kg/injection, schedule: Q03DX003 (ip), vehicle: saline); 104 % of control (endpoint: mean survival time, dose: 150.0 micrograms/kg/injection, schedule: Q07DX002 (ip), vehicle: saline); 102 % of control (endpoint: mean survival time, dose: 300.0 micrograms/kg/injection, schedule: Q07DX002 (ip), vehicle: saline). Moreover, the T/C (endpoint: median survival time, dose: 1.25 mg/kg/injection, schedule: Q01DX009 (ip), vehicle: saline) was 157 % of control; the T/C (endpoint: median survival time, dose: 5.0 mg/kg/injection, schedule: Q01DX009 (ip), vehicle: saline) is 122 % of control; the T/C (endpoint: median survival time, dose: 10.0 mg/kg/injection, schedule: Q01DX009 (ip), vehicle: saline) was 105 % of control and 114 % of control.
As to `Cc1ccc(NC(=O)OC(C)C)c(C)c1`, the T/C runs as follows: under setting [1], 100 % of control; under setting [2], 100 % of control; under setting [3], 96 % of control.
On to `Cc1ccc(S(=O)(=O)NCC(=O)NCC(=O)Oc2ccc([N+](=O)[O-])cc2)cc1` (Tos-Gly-Gly-ONp), for which the T/C runs as follows: (endpoint: mean survival time, dose: 100.0 mg/kg/injection, schedule: Q04DX003 (ip), vehicle: other) 105 % of control; (endpoint: mean survival time, dose: 200.0 mg/kg/injection, schedule: Q04DX003 (ip), vehicle: other) 102 % of control; (endpoint: mean survival time, dose: 400.0 mg/kg/injection, schedule: Q04DX003 (ip), vehicle: other) 98 % of control.
For the compound `CCc1ccccc1NC(=O)Nc1ccc(CCO)cc1`, the T/C by setting is: under setting [1], 98 % of control; under setting [2], 105 % of control; under setting [3], 96 % of control.
With `NC(=O)Nc1ccccc1O`, the T/C is 102 % of control (endpoint: mean survival time, dose: 75.0 mg/kg/injection, schedule: Q04DX002 (ip), vehicle: saline with Tween-80); 87 % of control (endpoint: mean survival time, dose: 150.0 mg/kg/injection, schedule: Q04DX002 (ip), vehicle: saline with Tween-80); 97 % of control (endpoint: mean survival time, dose: 300.0 mg/kg/injection, schedule: Q04DX002 (ip), vehicle: saline with Tween-80).
